Results: US9862748B2, “Peptide compounds and methods of production and use thereof” (priority 2012, dated 2018)

Legend:
[1] = test system: Pseudomonas aeruginosa ATCC® 27853™; format: cell-based; conditions: 3.12-25 μM; 180 minutes
Procedure, shortened: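 P. aeruginosa ATCC 27853 at 1×10^6 CFU/ml incubated 180 min with peptides (25–3.12 μM, pH 5.5 or 7.2; or 150–37.5 μg/ml, pH 5.5) versus tryptone saline; gentamicin 4 μg/ml control. Surviving CFU counted after overnight plating, expressed as log reduction in CFU/ml.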

swine skin wounds = assay: Swine full thickness excisional dermal wound model, wound area; format: in vivo
Procedure: In this Example, peptide compounds of the presently disclosed and claimed inventive concept(s) were evaluated as to their activity on the dermal wound healing process in a clinically relevant swine full thickness excisional wound model. Three different peptide formulations (Group B, Peptide 95-122 (SEQ ID NO: 26); Group C, Peptide 120-146WH (SEQ ID NO: 31); and Group D, Peptide 120-146QH-5RMP (SEQ ID NO: 33)) were each evaluated at the same concentration (3 mg/ml). Sterile saline served as the control (Group A).
Full thickness excisional wounds were induced on the dorsum of swine (N=3) using a 1.0 cm biopsy punch. Treatments were administered (0.20 ml) to each wound (N=6 wounds per group), and the wounds were dressed with standard occlusive dressing ([…]™, 3M Corporation, St. Paul, Minn.). Treatments were reapplied daily and dressings changed. Clinical wound healing observations and wound area (2 mm) measurements were performed on days 0, 3, 5, 7, 10, and 14 post-wounding. Wound area (2 mm) data were expressed as percentage (%) of wound healing. Animals were terminated on day 14 with wounds harvested and processed for histological evaluation. […] All peptide formulation treatment groups healed faster with greater rate of closure and re-epithelialization over time, as compared to the saline control (Group A).

corneas = assay: Corneal cytokines after intrastromal injection (MILLIPLEX MAP mouse cytokine assay); format: in vivo; conditions: intrastromal 0.5 μl, 10^−4, 10^−5, 10^−6 M; 24 and 48 hours
Procedure: Corneas were injected intrastromally with 0.5 μl of peptide 95-122 at a final concentration of 10^−4 M, 10^−5 M, and 10^−6 M and vehicle (saline) control. Corneas were collected and flash frozen at 24 hours and 48 hours. Corneal lysates were analyzed for cytokines using the MILLIPLEX® MAP mouse cytokine assay for IL-7 (A), IL-15 (B), IFN-γ (C), MIP1-α (D) (EMD Millipore Corp., Billerica, Mass.). The means of independent experimental values are shown ±SEM. ***P<0.001, **P<0.01, *P<0.05 by unpaired t-test as compared to vehicle treated controls. […] Corneas were injected intrastromally with 0.5 μl of peptide 95-122 at a final concentration of 10^−4 M, 10^−5 M, and 10^−6 M and vehicle (saline) control. Corneas were collected and flash frozen at 24 hours and 48 hours. Corneal lysates were analyzed for cytokines using the MILLIPLEX® MAP mouse cytokine assay for MIP1-β (EMD Millipore Corp., Billerica, Mass.). **P<0.01, *P<0.05 by unpaired t-test as compared to vehicle treated controls. […] Corneas were injected intrastromally with 0.5 μl of peptide 95-122 at a final concentration of 10^−4 M, 10^−5 M, and 10^−6 M and vehicle (saline) control. Corneas were collected and flash frozen at 24 hours and 48 hours. Corneal lysates were analyzed for cytokines using the MILLIPLEX® MAP mouse cytokine assay for KC (A), IL-1β (B), and GM-CSF (C) (EMD Millipore Corp., Billerica, Mass.). **P<0.01, *P<0.05 by unpaired t-test as compared to vehicle treated controls.

[2] = 3 mg/ml, 0.20 ml per wound, reapplied daily

LDREANLTSSVTILPLPLQNATVEAGTR (listed as Homo sapiens) [Peptide 95-122]
activity against Pseudomonas aeruginosa at either pH (5.5, 7.2) [1]: not active
Mean Wound Healing (%) Day 0 (swine skin wounds; [2]): 0.0%
Mean Wound Healing (%) Day 3 (swine skin wounds; [2]): 28.9%
Mean Wound Healing (%) Day 5 (swine skin wounds; [2]): 41.5%
Mean Wound Healing (%) Day 7 (swine skin wounds; [2]): 70.8%
Mean Wound Healing (%) Day 10 (swine skin wounds; [2]): 99.7%
Mean Wound Healing (%) Day 14 (swine skin wounds; [2]): 100.0%
dermal wound healing (swine skin wounds; topical 3 mg/ml over 14 days, vs saline): accelerate dermal wound healing
GM-CSF in corneal lysates (corneas): significantly increases
IFN-γ in corneal lysates (corneas): significantly increases
IL-1β in corneal lysates (corneas): significantly increases
IL-7 in corneal lysates (corneas): significantly increases
IL-15 in corneal lysates (corneas): significantly increases
KC in corneal lysates (corneas): significantly increases
MIP1-0 (MIP1-β) in corneal lysates (corneas): significantly increases
MIP1-α in corneal lysates (corneas): significantly increases
